Test results published in patent US20150094220A1, “METHOD TO PREDICT THE SAFETY OF THE TREATMENT WITH A NICOTINIC CHOLINERGIC RECEPTOR AGONIST” (GENETRACER BIOTECH S.L, priority 2012, published 2015).

Experiments:
[1] = Observational pharmacogenetic study: treatment suspension due to adverse effects in smokers treated with varenicline; format: in vivo, human
Protocol: (§1) In a study conducted on 807 patients from the Tobacco Addiction Units of 22 hospitals and health centers in Spain and Portugal, more than 300 SNPs relating to the relevant pathways with respect to the efficacy of the 3 first-line pharmacological tobacco cessation treatments were assessed: nicotine replacement therapy (NRT), bupropion and varenicline. The safety was assessed after three months of abstinence from tobacco consumption in relation to the presence of adverse effects which determined the reduction or withdrawal of the initially applied treatment.
(§2) The analysis process was carried out after applying the usual checks for correcting data entry errors. The status of the subjects was first characterized either as “cases” or as “controls”, depending on the safety results obtained after 3 months of follow-up after the establishment of the chosen tobacco cessation treatment. Those individuals in whom (a) it was necessary to reduce the dose of the chosen treatment due to the presence of treatment-related adverse effects, or (b) it was necessary to suspend or change the treatment due to intolerance to same according to the assessment of his/her doctor, were considered as “cases”. The different statistical analysis models thus provided information about the safety associated with the presence of a certain genetic pattern.
(§3) To assess the possibility of confounding biases as a result of the mixed population analysis, and also as a control for genotyping errors, the Hardy-Weinberg disequilibrium test was performed both in the “cases” and in the corresponding “controls”. The result of this test was assessed before analyzing the results obtained in the various logistic regression models which were used to assess the association between the specific SNPs and the safety results of the prescribed treatments. The following penetrance models were used in the logistic regression models: dominant, recessive, additive, over-dominant and log-additive. The statistical analyses were performed both with the allelic frequency and with the genotypic frequency, the latter being those which provide the most information about the associations to be replicated. All the results were presented as odds-ratios (OR) with the corresponding 95% confidence intervals and statistical significance value thereof.
(§4) Finally, the discriminating power of the different genetic indicators (SNPs) analyzed with respect to the safety results was assessed by means of […] and area under the curve analysis. The final purpose of this analysis strategy was to enable estimating the probability of adverse effects that a subject with a certain genotypic profile who starts a tobacco cessation treatment (particularly with varenicline) may have and adjusting and monitoring his/her treatment based on this information.
(§5) For the purpose of determining the pharmacogenetic profile associated with the safety of a pharmacological smoking cessation treatment, the results obtained in terms of abstinence from tobacco consumption after 3 months were evaluated in relation to the presence of adverse effects which determined the reduction or withdrawal of the initially applied treatment. The subjects were divided into three groups which were treated with NRT, bupropion or varenicline.
(§6) It is an observational study with the intervention of 21 Tobacco Addiction Units from the public health services in Spain and Portugal. A total of 807 subjects were invited to participate in the study, 798 of whom provided their sociodemographic and clinical data taking a test with 144 items. They also provided a biological sample for subsequent genotyping. 483 individuals were treated with varenicline. The information of both the phenotypic and genotypic variables was collected for 479 patients treated with varenicline before establishing the pharmacological treatment.
(§7) The clinical results were linked to the safety of the pharmacological treatments. […]

[2] = Observational pharmacogenetic study: dose reduction due to adverse effects in smokers treated with varenicline; format: in vivo, human; settings: for Linear OR, dose reduction due to adverse effects: linear model
Protocol: as §1, §2, §3, §4, §5, §6, §7

[3] = 1 mg twice a day, 3-month treatment studies; cited from earlier work
[4] = oral; cited from earlier work
[5] = target: α4β2 neuronal nicotinic acetylcholine receptor subtype (Homo sapiens, UniProt P17787+P43681); settings: selective partial agonist; cited from earlier work
α4β2 neuronal nicotinic acetylcholine receptor subtype, sequence (P43681 29-627 limits assumed): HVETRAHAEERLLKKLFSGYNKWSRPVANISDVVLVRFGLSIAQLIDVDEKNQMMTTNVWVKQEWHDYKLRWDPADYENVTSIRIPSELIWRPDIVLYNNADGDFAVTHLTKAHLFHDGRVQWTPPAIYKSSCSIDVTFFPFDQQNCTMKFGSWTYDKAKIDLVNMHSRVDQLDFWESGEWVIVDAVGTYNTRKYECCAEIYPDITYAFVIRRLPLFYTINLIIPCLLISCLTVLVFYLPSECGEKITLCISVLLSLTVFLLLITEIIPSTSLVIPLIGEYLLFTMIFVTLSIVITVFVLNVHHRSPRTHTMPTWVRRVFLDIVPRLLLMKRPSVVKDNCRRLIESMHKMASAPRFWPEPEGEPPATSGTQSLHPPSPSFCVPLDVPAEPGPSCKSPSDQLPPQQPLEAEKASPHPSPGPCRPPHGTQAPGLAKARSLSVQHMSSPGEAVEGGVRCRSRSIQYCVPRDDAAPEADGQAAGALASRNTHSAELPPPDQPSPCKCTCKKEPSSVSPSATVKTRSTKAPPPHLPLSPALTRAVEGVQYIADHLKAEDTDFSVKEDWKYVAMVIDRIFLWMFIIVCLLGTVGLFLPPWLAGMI
α4β2 neuronal nicotinic acetylcholine receptor subtype, sequence (P17787 26-502): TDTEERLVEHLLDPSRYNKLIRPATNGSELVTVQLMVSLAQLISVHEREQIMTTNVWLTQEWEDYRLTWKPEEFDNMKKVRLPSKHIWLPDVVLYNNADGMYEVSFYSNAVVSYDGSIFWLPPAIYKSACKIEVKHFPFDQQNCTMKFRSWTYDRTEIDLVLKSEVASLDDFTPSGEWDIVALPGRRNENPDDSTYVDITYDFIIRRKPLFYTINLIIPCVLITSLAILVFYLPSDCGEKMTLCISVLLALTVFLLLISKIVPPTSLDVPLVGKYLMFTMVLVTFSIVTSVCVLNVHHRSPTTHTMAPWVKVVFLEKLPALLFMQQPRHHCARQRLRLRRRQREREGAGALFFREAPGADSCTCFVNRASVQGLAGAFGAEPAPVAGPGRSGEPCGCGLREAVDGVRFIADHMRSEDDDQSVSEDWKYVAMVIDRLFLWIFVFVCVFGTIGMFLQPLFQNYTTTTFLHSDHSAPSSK

c1cnc2cc3c(cc2n1)C1CNCC3C1 [varenicline, 7,8,9,10-tetrahydro-6,10-methane-6H-pyrazino[2,3-h][3]benzazepine]
Linear OR, treatment suspension due to adverse effects ([1]; human, in vivo, 3 months): 2.43 | OR (95% CI), alleles, treatment suspension due to adverse effects ([1]; human, in vivo, 3 months): 2.41 | OR (95% CI), alleles, treatment suspension due to adverse effects ([1]; rs7146 (C19orf6) alleles C, T): 1.83 | OR, treatment suspension due to adverse effects ([1]; rs7146 (C19orf6) genotype C/C (reference)): 1.00 | OR, treatment suspension due to adverse effects ([1]; rs7146 (C19orf6) genotype C/T): 1.61 | OR, treatment suspension due to adverse effects ([1]; rs7146 (C19orf6) genotype T/T): 4.05 | Linear OR, treatment suspension due to adverse effects ([1]; rs7146 (C19orf6) genotype, linear model): 1.93 | OR (95% CI), alleles, treatment suspension due to adverse effects ([1]; rs477292 (OPRM1) alleles G, A): 1.91 | OR, treatment suspension due to adverse effects ([1]; rs477292 (OPRM1) genotype A/A): 3.54 | OR, treatment suspension due to adverse effects ([1]; rs477292 (OPRM1) genotype A/G): 2.13 | OR, treatment suspension due to adverse effects ([1]; rs477292 (OPRM1) genotype G/G (reference)): 1.00 | Linear OR, treatment suspension due to adverse effects ([1]; rs477292 (OPRM1) genotype, linear model): 1.99 | OR (95% CI), alleles, treatment suspension due to adverse effects ([1]; rs495491 (OPRM1) alleles T, C): 2.08 | OR, treatment suspension due to adverse effects ([1]; rs495491 (OPRM1) genotype C/C): 3.80 | OR, treatment suspension due to adverse effects ([1]; rs495491 (OPRM1) genotype C/T): 2.77 | OR, treatment suspension due to adverse effects ([1]; rs495491 (OPRM1) genotype T/T (reference)): 1.00 | Linear OR, treatment suspension due to adverse effects ([1]; rs495491 (OPRM1) genotype, linear model): 2.19 | OR (95% CI), alleles, treatment suspension due to adverse effects ([1]; rs3778151 (OPRM1) alleles T, C): 2.40 | OR, treatment suspension due to adverse effects ([1]; rs3778151 (OPRM1) genotype C/C): 8.48 | OR, treatment suspension due to adverse effects ([1]; rs3778151 (OPRM1) genotype C/T): 2.26 | OR, treatment suspension due to adverse effects ([1]; rs3778151 (OPRM1) genotype T/T (reference)): 1.00 | Linear OR, treatment suspension due to adverse effects ([1]; rs3778151 (OPRM1) genotype, linear model): 2.55 | OR (95% CI), alleles, treatment suspension due to adverse effects ([1]; rs7930792 (UBASH3B) alleles C, G): 0.52 | OR, treatment suspension due to adverse effects ([1]; rs7930792 (UBASH3B) genotype C/C (reference)): 1.00 | OR, treatment suspension due to adverse effects ([1]; rs7930792 (UBASH3B) genotype C/G): 0.58 | OR, treatment suspension due to adverse effects ([1]; rs7930792 (UBASH3B) genotype G/G): 0.21 | Linear OR, treatment suspension due to adverse effects ([1]; rs7930792 (UBASH3B) genotype, linear model): 0.52 | OR (95% CI), alleles, treatment suspension due to adverse effects ([1]; rs9479757 (OPRM1) alleles G, A): 3.27 | OR, treatment suspension due to adverse effects ([1]; rs9479757 (OPRM1) genotype A/A): 12.30 | OR, treatment suspension due to adverse effects ([1]; rs9479757 (OPRM1) genotype A/G): 3.46 | OR, treatment suspension due to adverse effects ([1]; rs9479757 (OPRM1) genotype G/G (reference)): 1.00 | Linear OR, treatment suspension due to adverse effects ([1]; rs9479757 (OPRM1) genotype, linear model): 3.47 | OR (95% CI), alleles, treatment suspension due to adverse effects ([1]; rs12423809 (C12orf36) alleles A, C): 1.91 | OR, treatment suspension due to adverse effects ([1]; rs12423809 (C12orf36) genotype A/A (reference)): 1.00 | OR, treatment suspension due to adverse effects ([1]; rs12423809 (C12orf36) genotype A/C): 1.59 | OR, treatment suspension due to adverse effects ([1]; rs12423809 (C12orf36) genotype C/C): 3.53 | Linear OR, treatment suspension due to adverse effects ([1]; rs12423809 (C12orf36) genotype, linear model): 1.87 | OR (95% CI), alleles, dose reduction due to adverse effects ([2]; rs763132 (ARHGAP18) alleles T, G): 0.43 | OR, dose reduction due to adverse effects ([2]; rs763132 (ARHGAP18) genotype G/G): 0.13 | OR, dose reduction due to adverse effects ([2]; rs763132 (ARHGAP18) genotype G/T): 0.49 | OR, dose reduction due to adverse effects ([2]; rs763132 (ARHGAP18) genotype T/T (reference)): 1.00 | Linear OR, dose reduction due to adverse effects ([2]; rs763132 (ARHGAP18) genotype): 0.44 | OR (95% CI), alleles, dose reduction due to adverse effects ([2]; rs1183035 (MAOB) alleles T, C): 0.28 | OR, dose reduction due to adverse effects ([2]; rs1183035 (MAOB) genotype C/C): 0.00 | OR, dose reduction due to adverse effects ([2]; rs1183035 (MAOB) genotype C/T): 0.83 | OR, dose reduction due to adverse effects ([2]; rs1183035 (MAOB) genotype T/T (reference)): 1.00 | Linear OR, dose reduction due to adverse effects ([2]; rs1183035 (MAOB) genotype): 0.42 | OR (95% CI), alleles, dose reduction due to adverse effects ([2]; rs4474069 (RAPGEF1) alleles C, T): 1.82 | OR, dose reduction due to adverse effects ([2]; rs4474069 (RAPGEF1) genotype C/C (reference)): 1.00 | OR, dose reduction due to adverse effects ([2]; rs4474069 (RAPGEF1) genotype C/T): 2.68 | OR, dose reduction due to adverse effects ([2]; rs4474069 (RAPGEF1) genotype T/T): 1.33 | Linear OR, dose reduction due to adverse effects ([2]; rs4474069 (RAPGEF1) genotype): 1.87 | treatment withdrawal rate due to adverse effects [3]: 12% | withdrawal rate due to headache [3]: 0.6% | withdrawal rate due to insomnia [3]: 1.2% | withdrawal rate due to nausea [3]: 3% | withdrawal rate due to sleep alterations [3]: 0.3% | absorption [4]: complete | systemic availability [4]: high | time of maximum plasma concentrations after intake [4]: 3 to 4 h | affinity [5]: high affinity
